Reference: US20140155330A1, “Compositions And Methods For Modulating Apoptosis” (Yeda Research and Development Co. Ltd., priority 2011, published 2014)

Assays:
[1] = biological target: Atg12-Bcl-2 interaction (Homo sapiens, UniProt P10415); assay: Co-immunoprecipitation of Flag-Atg12 with endogenous Bcl-2, competition by Bcl-2 inhibitor; assay type: binding; conditions: Atg12 immunoprecipitates from HEK293 cells incubated with 10 μM ABT-737 vs DMSO; western blot (FIG. 5G)
Text: (A) Sequence alignment of the BH3-like region of Atg12 with BH3 domains of the Bcl-2 family using ClustalW. […] Species abbreviations: Hs, Homo sapiens; Sc, Saccharomyces cerevisiae; Dm, Drosophila melanogaster. (B) Co-immunoprecipitation of Flag-tagged hAtg12 and Bcl-2 or Mcl-1 from HEK293 cells co-transfected as indicated. (C) Co-immunoprecipitation of Flag-tagged hAtg12 with endogenous Bcl-2 and Mcl-1 from HEK293 cells. (D) Co-immunoprecipitation of endogenous Atg12 and endogenous Mcl-1 in HEK293 and HeLa cells. (E) Co-immunoprecipitation of Flag-tagged Atg12 and endogenous Bcl-2 in HeLa cells treated with STS (3 μM; 4 h). (F) Co-immunoprecipitation of Flag-tagged Atg12 and endogenous Bcl-2 in HEK293 cells co-expressing a control plasmid (CAT) or HA-tagged BAD. (G) Flag-Atg12 was immunoprecipitated from HEK293 cells and incubated with either 10 μM ABT-737 or DMSO (vehicle control). Co-precipitating Bcl-2 was assessed by western blot after elution with excess Flag peptide. (H) Co-immunoprecipitation of wild-type Atg12 or Atg12/D64 mutants with Bcl-2 in HEK293 cells co-transfected as indicated.

[2] = biological target: Atg12-Mcl-1 interaction (Homo sapiens, UniProt Q07820); assay: Co-immunoprecipitation of Flag-Atg12 with Mcl-1, competition by Bcl-2 inhibitor; assay type: binding; conditions: Atg12 immunoprecipitates from HEK293 cells incubated with 10 μM ABT-737 (FIG. 5G)
[3] = test system: Bax; assay: Immunoprecipitation of conformationally active Bax (6A7 antibody) from HeLa cells; assay type: cell-based, human; conditions: HeLa cells treated with STS; conformation-specific antibody 6A7 (FIG. 11C)
Experimental: Conformationally active Bax was immunoprecipitated with anti-Bax antibody (6A7, Abcam). Cell pellets from STS-treated HeLa cells (3 μM, 4 h; Sigma Aldrich) were resuspended in 1% CHAPS (3-[(3-cholamidopropyl)-dimethylammonio]-1-propanesulfonate) buffer supplemented with protease and phosphatase inhibitors. Pre-cleared cell lysates were incubated with 2 μg antibody overnight at 4° C., followed by incubation with protein G agarose beads. Beads were washed with lysis buffer and boiled in sample buffer. Western blot detection of total Bax was performed with anti-Bax N20 antibody (Santa Cruz Biotechnology).
Next, it was assessed whether the depletion of Atg12 affected early events in the apoptotic cascade that are regulated by anti-apoptotic Bcl-2 proteins. […] Importantly, Bax activation was restored upon enforced expression of an siRNA-resistant construct of Atg12 (FIG. 11D).

[4] = test system: Atg12-Bcl-2 interaction; assay: Co-immunoprecipitation of Flag-tagged Atg12 and endogenous Bcl-2 in STS-treated HeLa cells; assay type: cell-based, human; conditions: STS 3 μM, 4 h (FIG. 5E)
Text: (A) Sequence alignment of the BH3-like region of Atg12 with BH3 domains of the Bcl-2 family using ClustalW. The four conserved BH3 hydrophobic residues are colored in grey, and the conserved “GD” residues in black. Arrow indicates critical Asp64 residue in hAtg12. Species abbreviations: Hs, Homo sapiens; Sc, Saccharomyces cerevisiae; Dm, Drosophila melanogaster. (B) Co-immunoprecipitation of Flag-tagged hAtg12 and Bcl-2 or Mcl-1 from HEK293 cells co-transfected as indicated. (C) Co-immunoprecipitation of Flag-tagged hAtg12 with endogenous Bcl-2 and Mcl-1 from HEK293 cells. (D) Co-immunoprecipitation of endogenous Atg12 and endogenous Mcl-1 in HEK293 and HeLa cells. (E) Co-immunoprecipitation of Flag-tagged Atg12 and endogenous Bcl-2 in HeLa cells treated with STS (3 μM; 4 h). (F) Co-immunoprecipitation of Flag-tagged Atg12 and endogenous Bcl-2 in HEK293 cells co-expressing a control plasmid (CAT) or HA-tagged BAD. (G) Flag-Atg12 was immunoprecipitated from HEK293 cells and incubated with either 10 μM ABT-737 or DMSO (vehicle control). Co-precipitating Bcl-2 was assessed by western blot after elution with excess Flag peptide. (H) Co-immunoprecipitation of wild-type Atg12 or Atg12/D64 mutants with Bcl-2 in HEK293 cells co-transfected as indicated. In B, C, F-H, DAP1-Flag was used instead of Flag-Atg12 as a negative control for co-immunoprecipitation. […]

[5] = test system: Flag-tagged human Atg12 (wild type)
[6] = biological target: T1, Flag-tagged Bcl-2 (UniProt P10415 1-239); assay: immunoprecipitation of Flag-tagged Bcl-2, western blot for endogenous Atg12
T1 construct: Expressed in HEK293 cells and immunoprecipitated on anti-FLAG beads; also called Flag-Bcl-2; not shown: Flag tag
Experimental: (§1) For co-immunoprecipitation, HEK293 cells were transiently transfected with the indicated plasmids. Cell pellets were lysed in B buffer (0.4% NP-40, 0.5 mM EDTA, 100 mM KCl, 20 mM Hepes pH 7.6, 20% glycerol) supplemented with protease and phosphatase inhibitors. […] In Example 7, an irrelevant tagged protein (DAP1-Flag) was used as control.
The conjugation of Atg12 to Atg5 is an essential step in the process of autophagy. In order to establish whether Bcl-2 binds to free Atg12, or to the Atg5-Atg12 conjugate, the nature of endogenous Atg12 that is co-immunoprecipitated with Bcl-2 was examined more closely. Upon immunoprecipitation of Flag-tagged Bcl-2 from HEK293 cells, a single band corresponding to the size of unconjugated Atg12 was observed, with no traces at the expected conjugate size (FIG. 7A, left). Furthermore, neither of Atg12's reported conjugation partners, Atg5 or Atg3, could be detected on this blot. […] The interaction between Bcl-2 and free Atg12 is significant, considering that unconjugated Atg12 represents only a small fraction of cellular Atg12, whereas the majority of the protein is conjugated to Atg5, even under basal conditions when autophagy is not induced (FIG. 7A, right).

[7] = biological target: T2, Bcl-2 G145A (UniProt P10415 1-239); assay: co-immunoprecipitation, transiently transfected HEK293 cells
T2 construct: Co-transfected with Flag-Atg12 in HEK293 cells; also called point mutation in the BH1 domain of Bcl-2
Experimental: as §1
Therefore experiments were performed to test whether Atg12 was able to interact with members of each subgroup, specifically Bcl-2 and Mcl-1. In transiently transfected HEK293 cells, wild-type Bcl-2 co-immunoprecipitated with Flag-Atg12 (FIG. 5B). […] The specificity of the interaction was further confirmed by reciprocal co-immunoprecipitation, in which Flag-Bcl-2 pulled down ectopically expressed Atg12 (FIG. 6B). In addition, Mcl-1 also co-immunoprecipitated with Flag-Atg12 upon co-expression (FIG. 5B), and Flag-Atg12 interacted with endogenous Bcl-2 and Mcl-1 (FIG. 5C). Thus, Atg12 is able to bind promiscuously to both subgroups of Bcl-2-related proteins.

T2 sequence (P10415 whole entry G145A, the tested form may be a part): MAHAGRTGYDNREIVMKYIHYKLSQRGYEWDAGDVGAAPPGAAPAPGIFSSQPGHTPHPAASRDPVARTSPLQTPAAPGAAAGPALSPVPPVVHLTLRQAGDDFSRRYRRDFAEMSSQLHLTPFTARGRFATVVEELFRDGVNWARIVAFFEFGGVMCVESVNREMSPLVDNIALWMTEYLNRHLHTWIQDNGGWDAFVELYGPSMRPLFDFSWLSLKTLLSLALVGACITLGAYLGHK
Sequence of Atg12-Mcl-1 interaction (Q07820 whole entry): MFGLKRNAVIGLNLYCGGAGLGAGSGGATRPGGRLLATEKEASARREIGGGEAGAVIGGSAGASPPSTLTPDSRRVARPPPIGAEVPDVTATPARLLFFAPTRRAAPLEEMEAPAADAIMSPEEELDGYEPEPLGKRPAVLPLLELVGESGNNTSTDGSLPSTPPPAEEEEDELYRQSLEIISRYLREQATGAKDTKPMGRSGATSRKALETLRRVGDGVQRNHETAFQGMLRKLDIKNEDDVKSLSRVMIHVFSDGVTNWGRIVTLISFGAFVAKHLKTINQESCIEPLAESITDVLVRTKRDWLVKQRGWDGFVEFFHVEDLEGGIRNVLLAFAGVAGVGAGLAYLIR
T1 sequence (P10415 whole entry): as the sequence (P10415 whole entry G145A, the tested form may be a part) above, with A145G counted along it
Sequence of Atg12-Bcl-2 interaction (Homo sapiens, UniProt P10415) (P10415 whole entry, the tested form may be a part): as the sequence (P10415 whole entry G145A, the tested form may be a part) above, with A145G counted along it

Molecule: CN(C)CC[C@H](CSc1ccccc1)Nc1ccc(S(=O)(=O)NC(=O)c2ccc(N3CCN(Cc4ccccc4-c4ccc(Cl)cc4)CC3)cc2)cc1[N+](=O)[O-] [ABT-737]
- interaction between Flag-Atg12 and endogenous Bcl-2 [1]: disrupted
- binding of Atg12 to Mcl-1 [2]: not affected

Molecule: CN[C@@H]1C[C@H]2O[C@@](C)([C@@H]1OC)n1c3ccccc3c3c4c(c5c6ccccc6n2c5c31)C(=O)NC4 [STS, staurosporine]
- Bax activation [3]: activation of Bax
- binding of Flag-Atg12 to endogenous Bcl-2 [4]: increased

Molecule: recombinant p38 purified from bacteria
- in-vitro kinase assay (33P-ATP); phospho-mapping by mass spectrometry [5]: p38 phosphorylates Atg12 in an in-vitro kinase assay; the site of phosphorylation was Thr65 in Atg12

B1: Atg12 (human; untagged, endogenous, or tag not stated) (other)
chain: MAEEPQSVLQLPTSIAAGGEGLTDVSPETTTPEPPSSAAVSPGTEEPAGDTKKKIDILLKAVGDTPIMKTKKWAVERTRTIQGLIDFIKKFLKLVASEQLFIYVNQSFAPSPDQEVGTLYECFGSDGKLVLHYCKSQAWG
notes: also called hAtg12; endogenous Atg12
- binding result [6]: binds

B2: Flag-tagged human Atg12 (wild type) (other)
chain: MAEEPQSVLQLPTSIAAGGEGLTDVSPETTTPEPPSSAAVSPGTEEPAGDTKKKIDILLKAVGDTPIMKTKKWAVERTRTIQGLIDFIKKFLKLVASEQLFIYVNQSFAPSPDQEVGTLYECFGSDGKLVLHYCKSQAWG
notes: Expressed from pcDNA3 in HEK293 or HeLa cells and pulled down on anti-FLAG M2 beads; Also used here for the recombinant Atg12 made in E. coli and purified on FLAG-agarose (kinase assay); also called Flag-Atg12; Flag-tagged hAtg12; not shown: Flag tag
- binding result [7]: no binding
